Experiments:
p46 hyperphosphorylation [1] = test: p46 hyperphosphorylation induced by stress-inducing agents, Western blot; assay type: cell-based, human; settings: for hyperphosphorylation of p46 (induction): 45 minutes
Method: FIG. 4. […] (A) IMR90 cells were treated with 0, 0.5, 1, or 4 μM of BPDE and trypsinized after 30 minutes. (B) IMR90 cells were incubated in the presence or absence of suramin (0.15 mM) for 1 hour before being irradiated with 0 or 20 J/m^2 of UVC. (C) IMR90 cells were treated with 0.7 M NaCl, 1 mM H2O2, 0.4 M Sorbitol or PBS (control) for 45 minutes before being lysed.
(§1) Cell culture and treatment. Normal human fibroblast IMR90 was purchased from American Type Culture Collection (Manassas, Va.). Cells were routinely cultured in Dulbecco's Modified Eagle's Medium (DMEM) containing 10% fetal bovine serum, 2 mM L-glutamine, 4.5 g/liter glucose, 100 units penicillin and 100 μg streptomycin at 37° C. under an atmosphere of 5% CO2. For UV irradiation, cells were washed twice with phosphate-buffered saline (PBS) and then irradiated with appropriate doses of UVC (254 nm). Fresh complete medium was added back and cells were lysed at appropriate times. For treatment with BPDE, cells were washed with PBS twice and fresh DMEM was added. BPDE was dissolved in anhydrous dimethyl sulfoxide (DMSO) and appropriate amount of BPDE solution was added to DMEM. Cells were lysed 30 minutes later.
(§2) Western Blotting. Lysates prepared from equal number of cells were mixed with equal volume of 2× sample buffer (50 mM Tris.HCl, pH 6.9, 9% glycerol, 2.3% SDS, 0.1% bromophenol blue and 10% mecaptoethanol) and the proteins were separated on a SDS/polyacrylamide gel. The proteins were then electroblotted onto an Immobilon-P membrane (Millipore, Bedford, Mass.). The blots were blocked for 1 hour at room temperature in Tris-buffered saline (20 mM Tris-HCl, pH 7.6, 137 mM NaCl) containing 0.1% (v/v) Tween 20 and 5% (w/v) non-fat dry milk (blocking solution), and then incubated for 1 hour at room temperature with appropriate antibodies at a concentration of 0.2–1 μg/ml. The blots were washed several times and then incubated with horseradish peroxidase-conjugated goat-anti-mouse IgG (Santa Cruz Biotechnology) that had been diluted 1:3000 with blocking solution. Enhanced chemiluminescence (Amersham, Arlington Heights, Ill.) was used according to the manufacturer's recommendations to detect the signal.
(§3) The data shown in FIG. 4 were obtained as follows. (A) IMR90 cells were treated with 0, 0.5, 1, or 4 μM of BPDE and trypsinized after 30 minutes. Digitonin-solubilized fraction (Cyto) and NP-40-solubilized fraction (Nuc) were separated on SDS-PAGE. SC-54 was used for Western Blotting. In FIG. 4, (B) IMR90 cells were incubated in the presence or absence of suramin (0.15 mM) for 1 hour before being irradiated with 0 or 20 J/m^2 of UVC. After 0, 10, 20 or 30 minutes, whole cell lysates were prepared, separated on SDS-PAGE and transferred to a PVDF membrane. SC-54 or an antibody against human ERK2 was used for Western Blotting. […] In FIG. 4, (C) IMR90 cells were treated with 0.7 M NaCl, 1 mM H2O2, 0.4 M Sorbitol or PBS (control) for 45 minutes before being lysed. Whole cell lysates were separated on SDS-PAGE. SC-54 was used for Western Blotting.

p46 hyperphosphorylation [2] = test: p46 (Nogo B) hyperphosphorylation after UVC irradiation in presence of inhibitors, Western blot with SC-54; assay type: cell-based, human
Method: FIG. 5. […] Then cells were irradiated with 20 J/m^2 of UVC and lysed 30 minutes later. Whole cell lysates were separated on SDS-PAGE. SC-54 was used for Western Blotting.
as §1, §2, §3
It has been shown that elevated cellular stress level can activate p38 MAPK. The role of activation of p38 MAPK in p46 hyperphosphorylation was investigated.

MEK = settings: cited from earlier work
p38 = settings: read-out: IC50 (p38-specific inhibitor); cited from earlier work
ERK2 = ERK2 phosphorylation after UVC irradiation, Western blot; assay type: cell-based, human; settings: preincubation 0.15 mM for 1 hour, 20 J/m^2 UVC, IMR90 cells
Method: as §2
The data shown in FIG. 4 were obtained as follows. (A) IMR90 cells were treated with 0, 0.5, 1, or 4 μM of BPDE and trypsinized after 30 minutes. Digitonin-solubilized fraction (Cyto) and NP-40-solubilized fraction (Nuc) were separated on SDS-PAGE. SC-54 was used for Western Blotting. […]

**Q.** For `OC1c2cc3ccc4cccc5ccc(c2C2OC2C1O)c3c45` (racemic) [BPDE, (±)-r-7,t-8-dihydroxy-t-9,10-epoxy-7,8,9,10-tetrahydrobenzo(a)pyrene], which “p46 hyperphosphorylation (induction)” value (p46 hyperphosphorylation [1]; 0, 0.5, 1, or 4 μM, 30 minutes, IMR90 cells) is on record?
**A.** led to p46 hyperphosphorylation in a dose-dependent manner

**Q.** For `OO` [H2O2], which “hyperphosphorylation of p46 (induction)” value (p46 hyperphosphorylation [1]; 1 mM, IMR90 cells) is on record?
**A.** rapid hyperphosphorylation

**Q.** With `[Cl-].[Na+]` [NaCl] as the compound, how does the “hyperphosphorylation of p46 (induction)” value (p46 hyperphosphorylation [1]; 0.7 M, IMR90 cells) read?
**A.** rapid hyperphosphorylation

**Q.** What does the source list for `COc1cccc(-c2cc(=O)c3ccccc3o2)c1N` [PD98059]?
**A.** p46 hyperphosphorylation (p46 hyperphosphorylation [2]; 20 uM): not affected; IC50 (MEK): […]

**Q.** For `Oc1ccc(-c2nc(-c3ccc(F)cc3)c(-c3ccncc3)[nH]2)cc1` [SB202190], which p46 hyperphosphorylation (p46 hyperphosphorylation [2]; 270 nM inhibitor, 30 minutes before 20 J/m^2 UVC, IMR90 cells) is on record?
**A.** almost completely abolished

**Q.** And the “hyperphosphorylation of Nogo” value (p46 hyperphosphorylation [2]; indicated concentrations for 30 minutes, then 20 J/m^2 UVC, lysed 30 minutes later, IMR90 (FIG. 5))?
**A.** abolished

**Q.** For `CCc1nc(-c2ccc(OC)cc2)[nH]c1-c1ccncc1` [SB202474], which p46 hyperphosphorylation (p46 hyperphosphorylation [2]; concentration not given, UVC, IMR90 cells) is on record?
**A.** no effect

**Q.** Which p46 phosphorylation state (p46 hyperphosphorylation [1]; cells arrested by the agent) does the source give for `C[C@@]1(CO)[C@H](O)CC[C@@]2(C)[C@H]1CC[C@H]1C[C@@H]3C[C@@]12CC[C@]3(O)CO` [aphidicolin] here?
**A.** hyperphosphorylated

**Q.** Which “hyperphosphorylation of p46 (induction)” value (p46 hyperphosphorylation [1]; 0.4 M, IMR90 cells) does the source give for `OC[C@@H](O)[C@@H](O)[C@H](O)[C@@H](O)CO` [sorbitol] here?
**A.** rapid hyperphosphorylation

**Q.** What does the source list for `Cc1ccc(C(=O)Nc2ccc(S(=O)(=O)O)c3cc(S(=O)(=O)O)cc(S(=O)(=O)O)c23)cc1NC(=O)c1cccc(NC(=O)Nc2cccc(C(=O)Nc3cc(C(=O)Nc4ccc(S(=O)(=O)O)c5cc(S(=O)(=O)O)cc(S(=O)(=O)O)c45)ccc3C)c2)c1` [suramin]?
**A.** p46 hyperphosphorylation (p46 hyperphosphorylation [2]; preincubation 0.15 mM for 1 hour, 20 J/m^2 UVC, IMR90 cells): no effect; phosphorylation of ERK2 (ERK2): completely blocked
